# Measured values taken from patent US7479560B2, “Creatine pyroglutamic acid salts and methods for their production and use in individuals” (New Cell Formulations, Ltd., priority 2006, dated 2009).
# Like-named read-outs stand apart in the source and are kept apart here.
# Key:
# cerebral ischemia = conditions: oral administration to experimental animals; cited from earlier work
# [1] = assay type: physicochemical; conditions: for dissolution upon visual inspection: 2 g in 75 ml distilled water, stirred mechanically ~5 min
# [2] = pH measurement of 2 g of substance in 75 ml H2O
# cognitive function = conditions: cited from earlier work
# [3] = test system: age-associated memory impairment; conditions: humans; cited from earlier work
compound,measurement,setting,value
"CN(CC(=O)O)C(=N)N [Creatine, N-methyl-N-guanyl Glycine]",ischemic brain infarction,cerebral ischemia,remarkable reduction
CN(CC(=O)O)C(=N)N.O [creatine monohydrate],dissolution upon visual inspection,[1]; Experiment 1,did not dissolve very well
same,dissolution after lowering pH by adding pyroglutamic acid,"[1]; Experiment 1, creatine monohydrate 2 g in 75 ml water, some pyroglutamic acid added",dissolved
same,dissolution after 30 min of stirring,"[1]; Experiment 2, 2 g in 75 ml distilled H2O, 30 min stirring",still a considerable amount of solids that did not dissolve
same,pH of 2 g in 75 ml H2O,[2],~7.00
"O=C1CC[C@@H](C(=O)O)N1 [pyroglutamic acid, L-pyroglutamic acid]",cognitive function in rats,cognitive function,improve
same,pH of 2 g in 75 ml H2O,[2],~2.00
same,age-associated memory impairment,[3],improves
(2-(1-methylguanidino)acetyl)oxonium (S)-5-oxopyrrolidine-2-carboxylate [creatine pyroglutamate],dissolution upon visual inspection,[1]; Experiment 1,dissolved completely
same,time to complete dissolution of crystals,"[1]; Experiment 2, 2 g in 75 ml distilled H2O, stirred",≤ 5 min
same,pH of 2 g in 75 ml H2O,[2]; listed as product obtained in Experiment 2,3.09
same,pH of 2 g in 75 ml H2O,[2]; listed as unwashed product,~3.00
